# Measurements: patent US20170165237A1 (DRUGGABILITY TECHNOLOGIES IP HOLDCO LIMITED, priority 2014, published 2017)
# Columns and labels:
# [1] = cited from earlier work
# human plasma proteins [2] = molecular target: human plasma proteins (Homo sapiens, UniProt P02768); settings: serum albumin; cited from earlier work
# human plasma proteins [3] = settings: cited from earlier work
# [4] = topical, psoriasis; cited from earlier work
# [5] = cited from earlier work; remark: listed apart in the source
# [6] = subconjunctival, 5 subjects; cited from earlier work
# angiogenesis pathways = settings: topical 1%; cited from earlier work
# [7] = in vivo; cited from earlier work
# [8] = in vivo; cited from earlier work; remark: listed apart in the source
# in vitro = settings: PAMPA, pH 7
# Description: The receiver compartment was phosphate buffered saline (pH 7.0) supplemented with 1% sodium dodecyl sulfate. The assay was performed at room temperature; incubation time was 1-24 hours. The concentration in the receiver compartment was determined by UV-VIS spectrophotometry (Thermo Scientific Genesys S10).
# CYP3A4 = CYP3A4 (Homo sapiens, UniProt P08684); settings: cited from earlier work
# Sequence of CYP3A4 (P08684 whole entry): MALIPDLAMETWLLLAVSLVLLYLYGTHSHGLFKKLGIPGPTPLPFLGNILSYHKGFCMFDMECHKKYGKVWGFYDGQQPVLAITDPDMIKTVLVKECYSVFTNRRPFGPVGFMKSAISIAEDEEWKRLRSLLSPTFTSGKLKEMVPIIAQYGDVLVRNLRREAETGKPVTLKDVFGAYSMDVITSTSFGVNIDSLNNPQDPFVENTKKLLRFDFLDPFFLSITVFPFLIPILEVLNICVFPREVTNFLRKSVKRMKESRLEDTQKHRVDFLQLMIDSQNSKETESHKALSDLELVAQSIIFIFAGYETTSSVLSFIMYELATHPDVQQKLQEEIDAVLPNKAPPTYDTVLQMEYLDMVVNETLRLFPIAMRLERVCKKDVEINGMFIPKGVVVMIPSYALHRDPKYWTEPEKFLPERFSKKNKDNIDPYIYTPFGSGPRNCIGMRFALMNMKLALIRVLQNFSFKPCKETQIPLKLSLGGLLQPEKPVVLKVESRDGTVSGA
# P-gp = P-gp (Homo sapiens, UniProt P08183); settings: cited from earlier work
# Sequence of P-gp (P08183 whole entry): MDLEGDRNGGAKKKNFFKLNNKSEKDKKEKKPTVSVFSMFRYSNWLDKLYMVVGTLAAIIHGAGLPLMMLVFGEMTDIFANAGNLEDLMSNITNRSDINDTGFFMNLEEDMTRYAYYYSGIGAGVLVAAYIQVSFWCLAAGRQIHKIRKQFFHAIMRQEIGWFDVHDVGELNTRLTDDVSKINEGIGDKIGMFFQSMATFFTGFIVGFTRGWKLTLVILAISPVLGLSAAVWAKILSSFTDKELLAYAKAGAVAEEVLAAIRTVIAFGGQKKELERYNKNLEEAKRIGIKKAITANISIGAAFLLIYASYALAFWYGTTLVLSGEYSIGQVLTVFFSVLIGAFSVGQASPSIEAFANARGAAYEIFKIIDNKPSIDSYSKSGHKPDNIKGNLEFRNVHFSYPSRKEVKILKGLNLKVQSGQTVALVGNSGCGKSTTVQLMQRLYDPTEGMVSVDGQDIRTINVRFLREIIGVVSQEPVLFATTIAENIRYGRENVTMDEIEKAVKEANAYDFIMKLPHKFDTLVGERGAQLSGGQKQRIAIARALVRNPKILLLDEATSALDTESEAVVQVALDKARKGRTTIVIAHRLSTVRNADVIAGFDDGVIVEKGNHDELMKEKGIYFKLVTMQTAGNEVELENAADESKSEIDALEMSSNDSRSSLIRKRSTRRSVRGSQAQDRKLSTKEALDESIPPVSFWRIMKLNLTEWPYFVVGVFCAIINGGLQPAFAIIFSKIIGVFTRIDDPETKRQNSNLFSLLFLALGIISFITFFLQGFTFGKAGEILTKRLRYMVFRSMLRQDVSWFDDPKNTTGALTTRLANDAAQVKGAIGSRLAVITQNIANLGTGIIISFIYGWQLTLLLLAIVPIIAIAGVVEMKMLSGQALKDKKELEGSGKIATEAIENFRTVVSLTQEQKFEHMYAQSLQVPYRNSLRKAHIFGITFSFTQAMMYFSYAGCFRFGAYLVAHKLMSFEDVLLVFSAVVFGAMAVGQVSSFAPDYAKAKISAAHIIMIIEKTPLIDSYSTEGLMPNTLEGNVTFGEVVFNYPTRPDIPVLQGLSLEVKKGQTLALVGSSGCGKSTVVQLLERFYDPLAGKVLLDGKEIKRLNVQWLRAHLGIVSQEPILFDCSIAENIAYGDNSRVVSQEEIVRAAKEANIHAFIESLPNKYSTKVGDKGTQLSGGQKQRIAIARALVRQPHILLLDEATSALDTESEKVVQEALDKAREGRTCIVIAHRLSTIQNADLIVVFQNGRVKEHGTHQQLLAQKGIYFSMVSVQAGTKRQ
# [9] = single dose [14C] Sirolimus oral solution, healthy volunteers
# Sequence of human plasma proteins (Homo sapiens, UniProt P02768) (P02768 25-609): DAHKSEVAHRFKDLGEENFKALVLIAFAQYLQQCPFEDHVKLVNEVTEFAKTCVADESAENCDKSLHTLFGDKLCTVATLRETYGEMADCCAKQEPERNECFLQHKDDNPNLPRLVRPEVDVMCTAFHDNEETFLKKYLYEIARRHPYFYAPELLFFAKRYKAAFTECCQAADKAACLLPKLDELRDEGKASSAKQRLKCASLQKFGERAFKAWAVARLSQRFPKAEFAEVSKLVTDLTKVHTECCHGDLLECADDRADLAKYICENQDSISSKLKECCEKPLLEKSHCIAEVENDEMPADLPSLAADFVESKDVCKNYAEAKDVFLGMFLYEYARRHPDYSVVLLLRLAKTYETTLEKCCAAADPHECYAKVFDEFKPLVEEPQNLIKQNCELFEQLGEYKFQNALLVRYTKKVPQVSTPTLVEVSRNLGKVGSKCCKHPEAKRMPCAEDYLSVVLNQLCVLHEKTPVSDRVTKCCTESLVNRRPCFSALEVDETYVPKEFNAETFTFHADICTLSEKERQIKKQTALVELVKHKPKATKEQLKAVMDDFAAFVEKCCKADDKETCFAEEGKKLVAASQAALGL
smiles,measurement,setting,value
"CO[C@H]1C[C@@H]2CC[C@@H](C)[C@@](O)(O2)C(=O)C(=O)N2CCCC[C@H]2C(=O)O[C@H]([C@H](C)C[C@@H]2CC[C@@H](O)[C@H](OC)C2)CC(=O)[C@H](C)/C=C(\C)[C@@H](O)[C@@H](OC)C(=O)[C@H](C)C[C@H](C)/C=C/C=C/C=C/1C [Sirolimus, (3 S,6R,7E,9R,10R, 12R, 14S, 15E, 17E, 19E,21 S,23 S,26R,27R,34aS)9,10,12,13,14,21,22,23,24, 25,26,27,32,33,34, 34a-hexadecahydro-9,27-dihydroxy-3-[(1R)-2[(1 S,3R,4R)-4-hydroxy-3-methoxycyclohexyl]-1-methylethyl]-10,21-dimethoxy6,8,12,14,20,26-hexamethyl-23,27-epoxy-3H-pyrido[2,1-c][1,4]oxaazacyclohentriacontine1,5,11,28,29 (4H,6H,31H)-pentone]",increase of mean total exposure (AUC) by high-fat meal compared with fasting,"[1]; healthy subjects, high-fat meal (861.8 kcal, 54.9% kcal from fat)",23 to 35%
same,mean±SD terminal elimination half-life (t1/2),"[1]; multiple dosing, stable renal transplant patients",about 62±16 hours
same,contribution to immunosuppressive activity in human whole blood,"[1]; parent vs metabolites, human whole blood",more than 90%
same,radioactivity excreted in urine,[1]; [9],2.2%
same,radioactivity recovered from the feces,[1]; [9],91%
same,bound mainly to serum albumin,human plasma proteins [2],97%
same,bound to human plasma proteins,human plasma proteins [3],approximately 92%
same,clinical score,[4],significant reduction
same,plaque thickness and erythema,[4],did not show significant improvement
same,systemic absorption after topical application,[5]; detection >1.0 ng/mL,No detectable systemic absorption
same,effect on facial angiofibromas,[5]; topical,causes regression
same,tolerability,[6],well tolerated
same,angiogenesis pathways; regeneration and revascularization of photocoagulated blood vessels,angiogenesis pathways,can suppress
same,allograft survival,[7],prolongs
same,immune-mediated events in autoimmune disease models,[8],suppresses
same,Papp,in vitro,< 1 ×10⁻⁶ cm/s
same,substrate for CYP3A4,CYP3A4,substrate
same,substrate for P-gp,P-gp,substrate
